Laboratory results reported in ChEMBL document CHEMBL3046358, “Multiple Pro-197 substitutions in the acetolactate synthase of rigid ryegrass (Lolium rigidum) and their impact on chlorsulfuron activity and plant growth” (Crop Prot, 2012).
pIC50: −log10 of the molar value.

Legend:
Lolium rigidum [1] = assay: Herbicidal activity against Lolium rigidum accession A15 assessed as emergence rate applied at 1 times pre-emergence recommended rate relative to untreated control; format: functional
Acetolactate synthase [2] = molecular target: T1, Acetolactate synthase (Lolium rigidum, UniProt A7XBP7); assay: Inhibition of acetolactate synthase Pro-197/Pro-197 mutant in Lolium rigidum accession A10 leaves extracts by acetolactate production assay; settings: read-out: I50
Lolium rigidum [3] = assay: Herbicidal activity against Lolium rigidum accession A11 assessed as emergence rate applied at 4 times pre-emergence recommended rate relative to untreated control; format: functional
Lolium rigidum [4] = assay: Herbicidal activity against Lolium rigidum accession A10 assessed as fresh weight reduction applied at 1 times pre-emergence recommended rate applied in pots where terbufos had been incorporated into the soil relative to untreated control; format: functional; set-up: scale not given: the % may be the effect or the level left
Lolium rigidum [5] = assay: Herbicidal activity against Lolium rigidum accession A06 assessed as fresh weight reduction applied at 4 times pre-emergence recommended rate relative to untreated control; format: functional; set-up: scale not given: the % may be the effect or the level left
Lolium rigidum [6] = assay: Herbicidal activity against Lolium rigidum accession A01 assessed as fresh weight reduction applied at 1 times pre-emergence recommended rate applied in pots where terbufos had been incorporated into the soil relative to untreated control; format: functional; set-up: scale not given: the % may be the effect or the level left
Acetolactate synthase [7] = molecular target: T1, Acetolactate synthase; assay: Inhibition of acetolactate synthase Ala-197/Ala-197 mutant in Lolium rigidum accession A06 leaves extracts by acetolactate production assay; settings: read-out: I50
Lolium rigidum [8] = assay: Herbicidal activity against Lolium rigidum accession A06 assessed as fresh weight reduction applied at 1 times pre-emergence recommended rate relative to untreated control; format: functional; set-up: scale not given: the % may be the effect or the level left
Lolium rigidum [9] = assay: Herbicidal activity against Lolium rigidum accession A12 assessed as emergence rate applied at 1 times pre-emergence recommended rate relative to untreated control; format: functional
Acetolactate synthase [10] = molecular target: T1, Acetolactate synthase; assay: Inhibition of acetolactate synthase Leu-197/Leu-197 mutant in Lolium rigidum accession A08 leaves extracts by acetolactate production assay; settings: read-out: I50
Acetolactate synthase [11] = molecular target: T1, Acetolactate synthase; assay: Inhibition of acetolactate synthase Ala-197/Ala-197 mutant in Lolium rigidum accession A05 leaves extracts by acetolactate production assay; settings: read-out: I50
Lolium rigidum [12] = assay: Herbicidal activity against Lolium rigidum accession A08 assessed as emergence rate applied at 1 times pre-emergence recommended rate relative to untreated control; format: functional
Lolium rigidum [13] = assay: Herbicidal activity against Lolium rigidum accession A11 assessed as emergence rate applied at 1 times pre-emergence recommended rate applied in pots where terbufos had been incorporated into the soil relative to untreated control; format: functional
Lolium rigidum [14] = assay: Herbicidal activity against Lolium rigidum accession A14 assessed as fresh weight reduction applied at 4 times pre-emergence recommended rate relative to untreated control; format: functional; set-up: scale not given: the % may be the effect or the level left
Lolium rigidum [15] = assay: Herbicidal activity against Lolium rigidum accession A14 assessed as emergence rate applied at 1 times pre-emergence recommended rate applied in pots where terbufos had been incorporated into the soil relative to untreated control; format: functional
Lolium rigidum [16] = assay: Herbicidal activity against Lolium rigidum accession A02 assessed as emergence rate applied at 4 times pre-emergence recommended rate relative to untreated control; format: functional
Lolium rigidum [17] = assay: Herbicidal activity against Lolium rigidum accession A15 assessed as fresh weight reduction applied at 4 times pre-emergence recommended rate relative to untreated control; format: functional; set-up: scale not given: the % may be the effect or the level left
Lolium rigidum [18] = assay: Herbicidal activity against Lolium rigidum accession A05 assessed as emergence rate applied at 1 times pre-emergence recommended rate applied in pots where terbufos had been incorporated into the soil relative to untreated control; format: functional
Lolium rigidum [19] = assay: Herbicidal activity against Lolium rigidum accession A07 assessed as fresh weight reduction applied at 4 times pre-emergence recommended rate relative to untreated control; format: functional; set-up: scale not given: the % may be the effect or the level left
Lolium rigidum [20] = assay: Herbicidal activity against Lolium rigidum accession A01 assessed as emergence rate applied at 1 times pre-emergence recommended rate relative to untreated control; format: functional
Lolium rigidum [21] = assay: Herbicidal activity against Lolium rigidum accession A09 assessed as fresh weight reduction applied at 1 times pre-emergence recommended rate applied in pots where terbufos had been incorporated into the soil relative to untreated control; format: functional; set-up: scale not given: the % may be the effect or the level left
Lolium rigidum [22] = assay: Herbicidal activity against Lolium rigidum accession A07 assessed as fresh weight reduction applied at 1 times pre-emergence recommended rate applied in pots where terbufos had been incorporated into the soil relative to untreated control; format: functional; set-up: scale not given: the % may be the effect or the level left
Lolium rigidum [23] = assay: Herbicidal activity against Lolium rigidum accession A11 assessed as fresh weight reduction applied at 4 times pre-emergence recommended rate relative to untreated control; format: functional; set-up: scale not given: the % may be the effect or the level left
Lolium rigidum [24] = assay: Herbicidal activity against Lolium rigidum accession A03 assessed as fresh weight reduction applied at 1 times pre-emergence recommended rate relative to untreated control; format: functional; set-up: scale not given: the % may be the effect or the level left
Lolium rigidum [25] = assay: Herbicidal activity against Lolium rigidum accession A08 assessed as fresh weight reduction applied at 4 times pre-emergence recommended rate relative to untreated control; format: functional; set-up: scale not given: the % may be the effect or the level left
[26] = molecular target: T2, Acetolactate synthase (Lolium rigidum) (UniProt A7XBP7); assay: Resistance index, ratio of I50 for acetolactate synthase Pro-197/Pro-197 mutant in Lolium rigidum accession A09 leaves extracts to I50 for acetolactate synthase in Lolium rigidum accession A01 leaves extracts
T2 sequence (whole entry): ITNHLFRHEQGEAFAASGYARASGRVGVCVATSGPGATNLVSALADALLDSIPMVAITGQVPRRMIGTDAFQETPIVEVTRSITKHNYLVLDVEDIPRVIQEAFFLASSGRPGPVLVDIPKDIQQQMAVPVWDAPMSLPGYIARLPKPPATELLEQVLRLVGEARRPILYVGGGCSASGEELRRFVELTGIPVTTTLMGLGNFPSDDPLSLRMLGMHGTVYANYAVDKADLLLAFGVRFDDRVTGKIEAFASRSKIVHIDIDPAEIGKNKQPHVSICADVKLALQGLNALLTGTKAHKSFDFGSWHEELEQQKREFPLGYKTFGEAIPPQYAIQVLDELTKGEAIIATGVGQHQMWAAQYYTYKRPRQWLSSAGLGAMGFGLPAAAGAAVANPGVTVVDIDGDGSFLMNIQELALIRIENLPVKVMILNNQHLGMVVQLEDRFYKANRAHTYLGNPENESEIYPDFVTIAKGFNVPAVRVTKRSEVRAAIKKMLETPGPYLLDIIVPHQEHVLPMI

Lolium rigidum [27] = assay: Herbicidal activity against Lolium rigidum accession A08 assessed as emergence rate applied at 4 times pre-emergence recommended rate relative to untreated control; format: functional
Lolium rigidum [28] = assay: Herbicidal activity against Lolium rigidum accession A06 assessed as emergence rate applied at 1 times pre-emergence recommended rate applied in pots where terbufos had been incorporated into the soil relative to untreated control; format: functional
Lolium rigidum [29] = assay: Herbicidal activity against Lolium rigidum accession A07 assessed as emergence rate applied at 1 times pre-emergence recommended rate relative to untreated control; format: functional
Lolium rigidum [30] = assay: Herbicidal activity against Lolium rigidum accession A14 assessed as fresh weight reduction applied at 1 times pre-emergence recommended rate applied in pots where terbufos had been incorporated into the soil relative to untreated control; format: functional; set-up: scale not given: the % may be the effect or the level left
Acetolactate synthase [31] = molecular target: T1, Acetolactate synthase; assay: Inhibition of acetolactate synthase Ala-197/Ala-197 mutant in Lolium rigidum accession A16 leaves extracts by acetolactate production assay; settings: read-out: I50
Lolium rigidum [32] = assay: Herbicidal activity against Lolium rigidum accession A05 assessed as fresh weight reduction applied at 4 times pre-emergence recommended rate relative to untreated control; format: functional; set-up: scale not given: the % may be the effect or the level left
Lolium rigidum [33] = assay: Herbicidal activity against Lolium rigidum accession A08 assessed as emergence rate applied at 1 times pre-emergence recommended rate applied in pots where terbufos had been incorporated into the soil relative to untreated control; format: functional
Lolium rigidum [34] = assay: Herbicidal activity against Lolium rigidum accession A13 assessed as fresh weight reduction applied at 1 times pre-emergence recommended rate relative to untreated control; format: functional; set-up: scale not given: the % may be the effect or the level left
Lolium rigidum [35] = assay: Herbicidal activity against Lolium rigidum accession A14 assessed as emergence rate applied at 4 times pre-emergence recommended rate relative to untreated control; format: functional

Work on `COc1nc(C)nc(NC(=O)NS(=O)(=O)c2ccccc2Cl)n1` [CHLORSULFURON] yielded an Activity (Lolium rigidum [1]) of 2%, a pIC50 (Acetolactate synthase [2]) of 7.40 and an Activity (Lolium rigidum [3]) of 1%. The Activity (Lolium rigidum [4]) was 97%, the Activity (Lolium rigidum [5]) was 11% and the Activity (Lolium rigidum [6]) was 99%. It also gave a pIC50 (Acetolactate synthase [7]) of 4.85, an Activity (Lolium rigidum [8]) of 0% and an Activity (Lolium rigidum [9]) of 2%. It also gave a pIC50 (Acetolactate synthase [10]) of 4.77, a pIC50 (Acetolactate synthase [11]) of 5.31 and an Activity (Lolium rigidum [12]) of 88%. It also gave an Activity (Lolium rigidum [13]) of 2%, an Activity (Lolium rigidum [14]) of 96% and an Activity (Lolium rigidum [15]) of 1%. It also gave an Activity (Lolium rigidum [16]) of 1%, an Activity (Lolium rigidum [17]) of 98% and an Activity (Lolium rigidum [18]) of 95%. The Activity (Lolium rigidum [19]) was 49%, the Activity (Lolium rigidum [20]) was 2% and the Activity (Lolium rigidum [21]) was 94%. The Activity (Lolium rigidum [22]) was 1%, the Activity (Lolium rigidum [23]) was 90% and the Activity (Lolium rigidum [24]) was 95%. The Activity (Lolium rigidum [25]) was 46%, the Ratio [26] was 1 and the Activity (Lolium rigidum [27]) was 45%. It also gave an Activity (Lolium rigidum [28]) of 92%, an Activity (Lolium rigidum [29]) of 89% and an Activity (Lolium rigidum [30]) of 98%. It also gave a pIC50 (Acetolactate synthase [31]) of 5.11, an Activity (Lolium rigidum [32]) of 2% and an Activity (Lolium rigidum [33]) of 91%. The Activity (Lolium rigidum [34]) was 98% and the Activity (Lolium rigidum [35]) was 1%.
